Test results as given in PMC10057994, “Click Triazole as a Linker for Pretargeting Strategies: Synthesis, Docking Investigations, Fluorescence Diagnosis, and Antibacterial Action Studies” (Molecules, 2023).

Columns and labels:
RAW264.7 cell = assay: MTT cell proliferation (cytotoxicity) assay; type: cell-based; settings: for IC50: MTT, 36 h treatment
Procedure: The “click” reaction conditions in click chemistry require copper sulfate and sodium ascorbate as catalysts, and the copper sulfate concentration is generally too high, which causes certain damage to the body. RAW264.7 cells were used as test cells to explore the safe concentration of copper sulfate, compounds A1–A3, and probes T1–T4. The macrophage suspension of RAW264.7 cells in the logarithmic growth stage was adjusted to 5 × 10^4 cells/mL and seeded in 96-well plates with 100 µL in each well. The cells were incubated at 37 °C and 5% CO2 for 24 h and then treated with different concentrations of copper sulfate solution (each concentration was repeated three times). After being treated with copper sulfate for 36 h, 10 µL MTT (5 mg/mL) was added to each well, and the cells were incubated at 37 °C and 5% CO2 for 4 h. Then, the MTT in the well was discarded, and 100 µL DMSO was added to each well and incubated at 37 °C for 0.5 h until the crystals were completely dissolved. The microplate reader read the OD490 nm of each well. The cytotoxicity assays of compounds A1–A3 and probes T1–T4 were the same as above. The cell proliferation inhibition rate (IC50) was calculated using SPSS 16.0 software.

[1] = UV-Vis absorption spectroscopy; type: physicochemical; settings: in methanol
Procedure: (§1) The ^1H NMR and ^13C NMR spectra were recorded at 25 °C in a Nuclear Magnetic Resonance Spectrophotometer (DRX-400, Bruker, Bremerhaven, Germany) at 400 MHz for ^1H NMR in DMSO-d6 and 100 MHz for ^13C NMR in CDCl3. Thin layer chromatography (TLC) was carried out on silica gel (GF254, Qingdao Haiyang Chemical Co., Ltd., Qingdao, China), and the spots were visualized with UV light at 254 nm. Fluorescence spectra were recorded on a fluorescence spectrophotometer (F-2710, Hitachi, Tokyo, Japan). UV-Vis spectrophotometer (UH5300, Hitachi, Tokyo, Japan) was used for the absorption measurements and the spectra were typically measured in the range of 190–1100 nm.
The sample of the compounds (A1–A3) was diluted to 1 × 10^−5 mg/mL. After thorough mixing, the target molecules were detected using a UV spectrophotometer at UV absorption wavelengths. The volume of the sample needed to be greater than 2/3 of the cuvette volume. All experiments were performed in triplicate.

[2] = test system: Agrobacterium tumefaciens; assay: Antibacterial activity, LB plate microdilution test; type: cell-based; settings: for antibacterial activity: cultured for 8 h
Procedure: The compounds A1–A3 were evaluated through the plate microdilution test according to the guidelines of the Clinical and Laboratory Standards Institute (CLSI). A colony of Agrobacterium tumefaciens grown on lysogeny broth (LB) agar plates was inoculated in lysogeny broth (LB) and incubated in an aerobic environment at 28 °C overnight (ON). The bacterial suspension was diluted to 5 × 10^7 CFU/mL, and 200 µL was added to each well, obtaining a final density of […]. Meanwhile, A1–A3 were serially diluted in 1X PBS at concentrations of 30, 50, and 100 µmol/L. Cefuroxime was used as an antibiotic control and DMSO as a solvent control. Subsequently, the plates were incubated at 28 °C in aerobiosis, and the growth rate was evaluated after 4, 6, 8, and 10 h using an ultraviolet (UV) detector.

[3] = Fluorescence excitation and emission spectra; type: physicochemical
Procedure: as §1
The sample of probes (T1–T4) was diluted to 1 × 10^−5 mg/mL for fluorescence, excitation, and emission spectra measurement by a fluorescence spectrophotometer. All experiments were performed in triplicate.

[4] = test system: Agrobacterium tumefaciens; assay: Fluorescence detection of Agrobacterium tumefaciens by diagnostic molecules (click in situ, fluorescence microscope); type: cell-based; settings: inhibitor 8 h (A1 30, A2 50, A3 50 µmol/L), then same amount of probe, copper sulfate and sodium ascorbate, click 1 h; probe-only controls
Procedure: An amount of 3 mL of the standby Agrobacterium solution at a concentration of 5 × 10^3 CFU/mL was added to the shaker tube. Then, 200 µL of A1 at a concentration of 30 µmol/L, A2 at a concentration of 50 µmol/L, and A3 at a concentration of 50 µmol/L were added at 28 °C. After incubation at 200 RPM/min for 8 h, the upper layer of the medium was poured off after centrifugation and washed three times with PBS, and the bacterial solution was resuspended by adding 1 mL of medium. Then, the same amount of probe was added, and 15 µL copper sulfate and sodium ascorbate were added at a concentration of 10 µmol/L. The control group was treated with only the corresponding probe, and the concentration of each probe was the same as that of the corresponding inhibitor. After adding probes to each group, the “click” reaction was complete for 1 h. After centrifugation, the upper layer of the medium was poured off and washed three times with PBS. Then, 1 mL of the medium was added to resuspend the bacterial solution, and 10 µL was added to the slide for fluorescence microscope detection and observation of the fluorescence of Agrobacterium in each group.

| Molecule | IC50 (RAW264.7 cell; Mus musculus) [µM] | absorption maxima (λmax) [1] [nm] | best emission wavelength [3] [nm] | best excitation wavelength [3] [nm] | further results |
| --- | --- | --- | --- | --- | --- |
| C#CCOc1ccc(O)c(C(=O)N/N=C/c2ccc(-c3ccccc3[N+](=O)[O-])o2)c1 [A1, (E)-2-hydroxy-N’-((5-(2-nitrophenyl)furan-2-yl)methylene)-5-(prop-2-ynyloxy)benzohydrazide] | > 98 | 352 | – | – | antibacterial activity ([2]; 30 µmol/L): 35% |
| C#CCNc1cccc(C(=O)N/N=C/c2ccc(-c3ccccc3[N+](=O)[O-])o2)c1 [A2, (E)-N’-((5-(2-nitrophenyl)furan-2-yl)methylene)-3-(prop-2-ynylamino)benzohydrazide] | > 96 | 332 | – | – | antibacterial activity ([2]; 50 µmol/L): 45%; antibacterial activity (in words) ([2]; Agrobacterium tumefaciens, 30-100 µmol/L, 4-10 h): better antibacterial activity than A1 and A3 |
| [N-]=[N+]=NCCOc1ccc(O)c(C(=O)N/N=C/c2ccc(-c3ccccc3[N+](=O)[O-])o2)c1 [A3, (E)-5-(2-azidoethoxy)-2-hydroxy-N’-((5-(2-nitrophenyl)furan-2-yl)methylene)benzohydrazide] | > 100 | 346 | – | – | antibacterial activity ([2]; 50 µmol/L): 35% |
| [N-]=[N+]=NCCOc1ccc(/C=N/c2ccccc2OCc2ccccc2[N+](=O)[O-])c(O)c1 [T1, (E)-2-((2-(2-nitrobenzyloxy)phenylimino)methyl)-5-(2-azidoethoxy)phenol] | > 100 | – | 310 | 273 | – |
| C#CCOc1ccc(/C=N/c2ccccc2O)c(O)c1 [T2, (E)-2-((2-hydroxyphenylimino)methyl)-5-(prop-2-ynyloxy)phenol] | > 92 | – | 315 | 273 | – |
| C#CCOc1ccc(-c2nc3ccccc3s2)c(O)c1 [T3, 2-(benzo[d]thiazol-2-yl)-5-(prop-2-ynyloxy)phenol] | > 100 | – | 377 | 327 | fluorescence of Agrobacterium tumefaciens [4]: did not emit fluorescence; melting point: 179 to 180 °C |
| O=S(=O)([O-])[O-].[Cu+2] [copper sulfate] | – | – | – | – | cell survival rate (RAW264.7 cell; copper sulfate concentration 12 µmol/L): 80% |
| (E)-5-(3-azidopropoxy)-2-((2-hydroxyphenylimino)methyl)phenol [T4] | – | – | 313 | 272 | IC50 (RAW264.7 cell): > 87 µM; fluorescence of Agrobacterium tumefaciens [4]: did not emit fluorescence |
